In experiment [1] the test system is myeloma cell lines. In words: Apoptosis assay (Annexin V/PI staining, TUNEL), myeloma cell lines. It is filed as cell-based, human. To be noted: for protection from β2m-induced apoptosis / spontaneous apoptosis of myeloma cells: IL-6 20 ng/ml or IGF-I 50 ng/ml, ARK-RS and RPMI-8226; for protection from B2 anti-β2m antibody-induced apoptosis: cytokines added to myeloma cells. The method, then:
(§1) The fraction of apoptotic cells was determined by staining cells with Annexin V-fluorescein isothiocyanate (FITC) (Immunotech) and propidium iodide (PI) (Sigma) (Vermes, I., et al., J. Immunol. Methods, 184:39-51, 1995). […] 5 μl of Annexin V-FITC (BD PharMingen, San Diego, Calif.) were added and incubated for 30 minutes. After washing and re-suspension of the cells in the binding buffer, 5 μl of PI were added, and the cells were ready for analysis. Percentages of apoptotic cells are the sum of PI^−/Annexin V^+ (newly apoptotic) and PI^+/Annexin V^+ (already apoptotic) cell populations (Vermes, I., et al., J. Immunol. Methods, 184:39-51, 1995).
A flow cytometry-based cell death detection kit (APO-BRDU) was purchased from BD PharMingen, and experiments were performed according to the manufacturer's protocol.

For experiment [2], the system named is caspase-3 and PARP. Put plainly: Western blot of caspase-3 activation and PARP cleavage in myeloma cells. Format: cell-based, human. To be noted: Z-VAD-FMK 100 μM; ARK-RS and RPMI-8226.
Procedure: Cells were cultured with or without 40 μg/ml β2m for 48 hours, harvested, washed, and lysed with lysis buffer (50 mM Tris, pH 7.5, 140 mM NaCl, 5 mM EDTA, 5 mM NaN3, 1% Triton-X-100, 1% NP-40, 1× protease inhibitor cocktail). […] The membrane was stripped and reprobed with anti-β-actin antibody (Santa Cruz Biotechnology) to ensure equivalent protein loading. For detection of caspase-3 activation and cleavage of poly(ADP-ribose) polymerase (PARP), the membranes were immunoblotted with anti-caspase-3 antibody (Santa Cruz Biotechnology) or anti-PARP antibody (BD PharMingen). Secondary antibodies conjugated to horseradish peroxidase were used for detection, followed by enhanced chemiluminescence (Bio-Rad Laboratories, Hercules, Calif.) and autoradiography.
Experiment [3] relates to Jurkat cells. In words: Apoptosis in Jurkat cells. It is filed as cell-based. To be noted: Z-VAD-FMK 100 μM; antibody 100 ng/ml, 18-hour culture. The method, then:
as §1
A pan-caspase inhibitor, z-Val-Ala-Asp-fluoromethyl ketone (Z-VAD-FMK) or caspase I inhibitor V, was purchased from Calbiochem-Novabiochem. This peptide was dissolved in dimethylsulfoxide (DMSO, Sigma) and added to cell suspensions at a final concentration of 100 μM (final DMSO concentration of 0.25%).
When the pan-caspase inhibitor Z-VAD-FMK was added to the culture, activation and processing of caspase-3 (data not shown), cleavage of PARP (FIG. 5B), and apoptosis (FIG. 5C) were inhibited.

Experiment [4] has as its system myeloma cell lines. To be noted: RPMI-8226 and U266; cited from earlier work.

In the case of “IL-6: recombinant human IL-6 (R&D Systems), growth and survival factor for myeloma cells”, in experiment [1], the “protection from β2m-induced apoptosis” value is “protected myeloma cells from β2m-induced apoptosis”, the “spontaneous apoptosis of myeloma cells” value was “reduced the percentage of cells undergoing spontaneous apoptosis” and the “protection from B2 anti-β2m antibody-induced apoptosis” value was “do not protect myeloma cells”.

As to “IGF-I: recombinant human IGF-I (R&D Systems), growth and survival factor for myeloma cells”, in experiment [1], the “protection from β2m-induced apoptosis” value is given as “only IL-6 protected myeloma cells”, the “spontaneous apoptosis of myeloma cells” value is given as “reduced the percentage of cells undergoing spontaneous apoptosis” and the “protection from B2 anti-β2m antibody-induced apoptosis” value was “do not protect myeloma cells”.

As for “z-Val-Ala-Asp-fluoromethyl ketone [Z-VAD-FMK]”, the “effect on β2m-induced apoptosis” value in experiment [1] (Z-VAD-FMK 100 μM, RPMI-8226, β2m 40 μg/ml, 48-hour culture) is on record as “inhibited”. Also, in experiment [2], the “effect on β2m-induced caspase-3 activation and PARP cleavage” value is given as “inhibited”. In experiment [3], the “effect on anti-Fas antibody 7C11-induced apoptosis” value was “abrogated apoptosis”.

In the case of `N[C@@H](Cc1ccc(N(CCCl)CCCl)cc1)C(=O)O` [melphalan], in experiment [4], the “sensitivity of myeloma cell lines to melphalan” value is given as “sensitive”.

Values taken from patent publication US7341721B2 (The Board of Trustees of the University of Arkansas, priority 2002, dated 2008).
